Data on ten compounds can be found in US12202790B2, “Sulfonamide derivatives having selective Nox inhibiting activity” (GLUCOX BIOTECH AB, priority 2018, dated 2025).

A word on the IC50: it is the concentration that gives 50% inhibition.

The target in one data set is Nox1 (Homo sapiens (Human), UniProt Q9Y5S8). Nature of the data set: Amplex Red assay of Nox1 expressing CHO cells. The class given is cell-based. The arrangement: key to IC50 Nox1: The sign “—” stands for “inactive”. As for the experimental part: (§1) HEK293 overexpressing Nox4 (CJ Nox4) cells were purchased from Redoxis, Lund, Sweden. HEK 293 cells expressing Nox5, Nox3 (HEK TRex) and CHO cells expressing Nox1, were a kind gift from Vincent Jaque Center Medical Universitaire, Geneva, Switzerland. Nox2 expressed in isolated neutrophils were isolated from whole blood (human), as previously described (Anvari E, et al., Free Radic Res 2015; 49:1308-1318).
CHO cells expressing Nox1 were cultured in DMEM 12 medium (DMEM/F12) supplemented with FBS (10%), penicillin (100 U/ml) and streptomycin (100 μg/ml) at 37° C. in air with 5% CO2.
(§2) Reactive oxygen produced in whole cells or in membrane preparation of Nox1, Nox3, Nox4, Nox5 and xanthine oxidase and glucose oxidase were determined using Amplex Red as detection probe of formed H2O2. Amplex Red (10-acetyl-3,7-dihydroxyphenoxazine) in combination with HRP and co-factors reacts with H2O2 in a 1:1 stoichiometry to form a highly fluorescent resorufin excitated at 544 nm producing emission at 590 nm.
(§3) Adherent cells (CHO, HEK) were collected by trypsinization, centrifuged, washed with HBSS, counted, and resuspended in HBSS. Cells were seeded in 96-well black flat bottom plates at a density of 50,000-100,000 cells/well. All compounds were dissolved in DMSO and concentrations ranging from 0.003 to 200 μM were tested in Nox cellular assays with a final concentration of DMSO of 1%. Cells were incubated at 37° C. with the compounds for 30 minutes before measurement. Cells expressing Nox1 and Nox2 were activated with the PKC activator PMA (0.1 μM). Nox5 was activated with the Ca2+ ionophore ionomycin (1 μM) and further enforced with PMA. The CJ HEK 293 cells overexpressed Nox4 constitutively. In the HTS screen HEK 293 TRex was used and tetracycline (1 mg/ml) was added 18 h before measurement to induce Nox4 expression. Production of hydrogen peroxide by Nox in intact cells was measured using Amplex Red fluorescence as described by Jaquet V, et al., Br J Pharmacol 2011; 164:507-520. Assay reagents including HRP (0.1 mM) and Amplex Red (50 μM) were added to initiate production of hydrogen peroxide. Fluorescence was read in a fluorescence plate reader at 37° C. every minute between 30-60 minutes.

A further data set deals with Nox2 (Homo sapiens (Human), UniProt P04839). Nature of the data set: Nox2 inhibition in human neutrophils, isoluminol-dependent chemiluminescence. The class given is cell-based. More on the design: key to IC50 Nox2: The sign “—” stands for “inactive”. The conditions noted are these: PMA stimulated human neutrophils. As for the experimental part:
as §1
Compounds of the invention were tested for selectivity against Nox2 in isolated neutrophils from whole blood (human), as previously described (Anvari E, et al., vide supra). Levels of ROS from PMA stimulated primary human neutrophils were measured using isoluminol-dependent chemiluminescence. […] The dye is excited by ROS and the light emitted when the excited molecules return to the ground state, relative to the amount of released ROS, is measured. This reaction is catalyzed and amplified by peroxidases. […] Compounds of the invention and GKT136901 were diluted at 4× working concentration and titrated from 100 μM to 0.006 μM in 1:4 steps as final concentrations. DPI was diluted in isoluminol buffer at 4× working concentration titrated from 10 μM to 0.0006 μM as final concentrations. PMA was diluted in isoluminol buffer at 4× working concentration for a final concentration of 30 ng/ml. […] Luminescence was detected using FluoStar Optima (BMG, Labtech). The isoluminol buffer was prepared immediately prior to addition to test plate. The buffer contained HRP fraction with or without PMA (30 ng/ml). Stock solutions at 6 μg/ml (PMA in HBSS), 3 μg/ml (PMA in DMSO) and 24 mM (DPI) were used and further diluted at the day of analysis to 4× working concentrations in HBSS with or without DMSO.

A further data set concerns the target Nox5 (Homo sapiens (Human), UniProt Q96PH1). Put plainly: Amplex Red assay of Nox5 expressing HEK cells. The class given is cell-based. The arrangement: key: The sign “—” stands for “inactive”.
Excerpt: as §1
(§4) HEK293T cells expressing tetracycline-inducible human (Nox3 or Nox4) and HEK293 cells stably expressing human Nox5 were generated as described previously (Serrander et al., 2007a,b). HEK cells were cultured in Dulbecco's modified Eagle medium (DMEM) with 4.5 g/l glucose, supplemented with FBS (10%), penicillin (100 U/ml) and streptomycin […] at 37° C. in air with 5% CO2.
as §2, §3

Data set [1] in a line: Microsomal metabolic stability, human. The class given is in vitro ADME. The conditions noted are these: pooled liver microsomes, pH 7.4, read-out: Metab. stab, human t1/2. As for the experimental part:
The microsomal metabolic stability assay utilizes pooled human, or animal (mouse) species, liver microsomes with supplemented cofactor (NADPH) to primarily facilitate cytochrome P450 (CYP) reactivity against target compound. Test compound (1 μM incubation concentration) and microsomes (0.5 mg/ml incubation concentration) were diluted in 0.1 M phosphate buffer, pH 7.4, in a volume of 150 μl. The reaction was initiated with addition of NADPH (1 mM). The incubation times were 0, 5, 15, 40 min and the reaction was quenched, at each time point, by addition of 100 μl acetonitrile containing Warfarin as IS. The plate was then sealed, centrifuged and frozen at −20 C until LC-MS/MS analysis.

In data set [2] the test system is Nox1, Nox2, Nox3 and Nox5. Nature of the data set: Activity on Nox1, Nox2, Nox3 and Nox5. The class given is cell-based. As for the experimental part:
as §2
as §3, with “Assay reagents including HRP (0.1 mM) and Amplex Red (50 μM) were added to initiate production of hydrogen peroxide.” left out
Compounds of the invention were tested for selectivity against Nox2 in isolated neutrophils from whole blood (human), as previously described (Anvari E, et al., vide supra). Levels of ROS from PMA stimulated primary human neutrophils were measured using isoluminol-dependent chemiluminescence. […] The dye is excited by ROS and the light emitted when the excited molecules return to the ground state, relative to the amount of released ROS, is measured. […] Luminescence was detected using FluoStar Optima (BMG, Labtech). […]

A further data set addresses Nox3 (Homo sapiens (Human), UniProt Q9HBY0). Put plainly: Amplex Red assay of Nox3 expressing HEK cells. The class given is cell-based. The arrangement: key: The sign “—” stands for “inactive”.
Excerpt: as §1, §4, §2
as §3, with “Nox5 was activated with the Ca2+ ionophore ionomycin (1 μM) and further enforced with PMA. The CJ HEK 293 cells overexpressed Nox4 constitutively. In the HTS screen HEK 293 TRex was used and tetracycline (1 mg/ml) was added 18 h before measurement to induce Nox4 expression.” left out, “Assay reagents including HRP (0.1 mM) and Amplex Red (50 μM) were added to initiate production of hydrogen peroxide.” left out

A further data set concerns the target glucose oxidase (Aspergillus niger, UniProt P13006). Put plainly: Amplex Red and glucose oxidase (GO) assay. More on the design: key: The sign “—” stands for “inactive”. The class given is biochemical. As for the experimental part:
as §2
The assay was performed using a modified form of Invitrogen Amplex™ Red Glucose/Glucose Oxidase Assay Kit Cat no: A22189. Test compounds were incubated with 5 mU/ml glucose oxidase for 30 min at room temperature, followed by the addition of substrate and detection mix (final concentrations of 0.1 U/ml HRP, 10 mM glucose, 50 μM Amplex Red in phosphate buffer pH 7.4) and then fluorescence detection of hydrogen peroxide production was performed during 30 min at 37° C. in a plate reader that use excitation at 544 nm producing emission at 590 nm.

Sequence of glucose oxidase (P13006 17-605): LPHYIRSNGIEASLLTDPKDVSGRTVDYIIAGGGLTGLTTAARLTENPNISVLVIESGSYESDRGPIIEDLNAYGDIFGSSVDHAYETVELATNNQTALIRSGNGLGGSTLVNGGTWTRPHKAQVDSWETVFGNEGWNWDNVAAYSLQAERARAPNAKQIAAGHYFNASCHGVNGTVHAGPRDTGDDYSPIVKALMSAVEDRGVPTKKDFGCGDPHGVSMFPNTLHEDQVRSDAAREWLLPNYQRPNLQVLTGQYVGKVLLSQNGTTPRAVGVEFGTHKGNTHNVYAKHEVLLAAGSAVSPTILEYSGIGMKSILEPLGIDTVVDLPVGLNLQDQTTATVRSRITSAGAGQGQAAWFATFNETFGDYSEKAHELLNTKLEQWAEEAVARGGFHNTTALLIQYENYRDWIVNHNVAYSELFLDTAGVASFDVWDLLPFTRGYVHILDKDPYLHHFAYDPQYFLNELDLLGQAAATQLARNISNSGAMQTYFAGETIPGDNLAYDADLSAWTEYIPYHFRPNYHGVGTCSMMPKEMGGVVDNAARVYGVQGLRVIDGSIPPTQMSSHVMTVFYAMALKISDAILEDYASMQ
Sequence of Nox2 (P04839 2-570): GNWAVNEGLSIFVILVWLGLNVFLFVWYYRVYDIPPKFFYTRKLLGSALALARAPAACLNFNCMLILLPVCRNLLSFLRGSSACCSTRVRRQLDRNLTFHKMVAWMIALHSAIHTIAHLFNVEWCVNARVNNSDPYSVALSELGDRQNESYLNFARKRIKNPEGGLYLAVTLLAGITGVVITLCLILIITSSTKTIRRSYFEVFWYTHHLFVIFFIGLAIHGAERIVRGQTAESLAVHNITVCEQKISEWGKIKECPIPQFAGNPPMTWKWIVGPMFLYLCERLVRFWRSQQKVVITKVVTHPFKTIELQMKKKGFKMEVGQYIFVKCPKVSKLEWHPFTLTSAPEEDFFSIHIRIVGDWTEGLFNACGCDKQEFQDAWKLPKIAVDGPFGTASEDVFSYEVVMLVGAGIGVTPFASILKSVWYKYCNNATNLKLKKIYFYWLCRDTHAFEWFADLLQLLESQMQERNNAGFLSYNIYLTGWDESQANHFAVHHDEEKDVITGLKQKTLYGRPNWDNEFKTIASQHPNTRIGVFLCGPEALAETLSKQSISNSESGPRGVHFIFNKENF
Sequence of Nox2 (P13498 2-195 partner): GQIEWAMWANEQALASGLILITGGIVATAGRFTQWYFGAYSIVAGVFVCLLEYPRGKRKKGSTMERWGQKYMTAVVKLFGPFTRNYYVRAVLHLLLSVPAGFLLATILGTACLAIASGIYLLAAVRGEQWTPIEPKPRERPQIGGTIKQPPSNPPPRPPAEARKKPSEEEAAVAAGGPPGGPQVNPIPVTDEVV
Sequence of Nox1 (Q9Y5S8 whole entry): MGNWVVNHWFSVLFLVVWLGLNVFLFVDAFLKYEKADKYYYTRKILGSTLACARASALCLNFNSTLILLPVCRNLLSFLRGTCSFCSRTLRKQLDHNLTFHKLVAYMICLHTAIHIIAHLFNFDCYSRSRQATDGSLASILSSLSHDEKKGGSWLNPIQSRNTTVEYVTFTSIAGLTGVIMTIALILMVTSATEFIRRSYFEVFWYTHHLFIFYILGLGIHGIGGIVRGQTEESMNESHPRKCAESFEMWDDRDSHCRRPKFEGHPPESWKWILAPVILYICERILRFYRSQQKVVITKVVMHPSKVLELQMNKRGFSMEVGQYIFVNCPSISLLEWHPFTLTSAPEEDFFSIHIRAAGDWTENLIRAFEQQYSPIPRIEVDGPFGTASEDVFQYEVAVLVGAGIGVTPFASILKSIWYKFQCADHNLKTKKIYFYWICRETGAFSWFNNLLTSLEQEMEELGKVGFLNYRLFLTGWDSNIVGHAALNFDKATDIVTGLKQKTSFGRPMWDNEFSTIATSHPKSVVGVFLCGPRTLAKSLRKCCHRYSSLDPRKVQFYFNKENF
Sequence of Nox1 (P13498 2-195 partner): as the sequence (P13498 2-195 partner) above
Sequence of Nox5 (Q96PH1 whole entry): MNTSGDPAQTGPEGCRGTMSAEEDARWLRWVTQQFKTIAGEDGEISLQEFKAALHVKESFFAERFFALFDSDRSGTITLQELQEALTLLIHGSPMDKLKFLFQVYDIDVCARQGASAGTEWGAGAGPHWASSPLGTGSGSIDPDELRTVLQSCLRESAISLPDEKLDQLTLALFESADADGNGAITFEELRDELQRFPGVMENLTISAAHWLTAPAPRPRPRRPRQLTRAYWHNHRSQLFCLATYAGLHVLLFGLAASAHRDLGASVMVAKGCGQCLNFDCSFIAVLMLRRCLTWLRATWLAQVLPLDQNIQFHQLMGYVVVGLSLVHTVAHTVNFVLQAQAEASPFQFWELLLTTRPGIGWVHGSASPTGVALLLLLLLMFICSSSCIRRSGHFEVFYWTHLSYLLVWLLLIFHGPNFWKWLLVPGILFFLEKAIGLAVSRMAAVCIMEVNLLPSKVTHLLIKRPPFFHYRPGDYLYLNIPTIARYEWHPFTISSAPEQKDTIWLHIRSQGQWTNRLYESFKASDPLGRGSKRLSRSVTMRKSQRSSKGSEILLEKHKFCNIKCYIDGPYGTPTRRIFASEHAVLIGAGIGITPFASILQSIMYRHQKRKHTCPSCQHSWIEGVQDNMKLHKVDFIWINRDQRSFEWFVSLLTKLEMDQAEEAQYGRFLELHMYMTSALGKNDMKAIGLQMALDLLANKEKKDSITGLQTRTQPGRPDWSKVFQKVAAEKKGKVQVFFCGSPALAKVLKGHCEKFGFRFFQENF
Sequence of Nox3 (Q9HBY0 whole entry): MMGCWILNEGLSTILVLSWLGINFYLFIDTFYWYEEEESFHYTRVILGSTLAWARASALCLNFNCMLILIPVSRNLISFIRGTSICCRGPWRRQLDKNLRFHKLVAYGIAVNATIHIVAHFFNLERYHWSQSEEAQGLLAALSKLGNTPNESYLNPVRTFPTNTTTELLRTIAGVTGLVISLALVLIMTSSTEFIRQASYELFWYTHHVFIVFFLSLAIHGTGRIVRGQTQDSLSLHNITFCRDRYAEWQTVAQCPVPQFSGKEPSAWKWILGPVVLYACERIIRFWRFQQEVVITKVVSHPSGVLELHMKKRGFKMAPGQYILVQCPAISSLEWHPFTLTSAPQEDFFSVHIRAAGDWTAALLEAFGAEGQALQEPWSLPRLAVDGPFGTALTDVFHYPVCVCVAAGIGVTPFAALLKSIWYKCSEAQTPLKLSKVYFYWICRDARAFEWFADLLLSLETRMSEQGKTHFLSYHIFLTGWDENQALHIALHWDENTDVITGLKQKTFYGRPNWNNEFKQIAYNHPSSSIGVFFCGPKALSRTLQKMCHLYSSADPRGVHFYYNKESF
Sequence of Nox3 (P13498 2-195 partner): as the sequence (P13498 2-195 partner) above

Take `COc1cc(C)c(S(=O)(=O)NCCc2ccccc2O)c(C)c1` [Example 47, N-[2-(2-hydroxyphenyl)ethyl]-4-methoxy-2,6-dimethyl-benzenesulfonamide]: at Nox1, the “IC50 Nox1” value was “—”. This compound registered an IC50 against Nox2 of 1000 nM. Besides, at Nox5, the “IC50 Nox5” value is “—”. Moreover, the half-life at 1 μM in data set [1] came out at 14 min.

On to `Cc1cc(O)cc(C)c1S(=O)(=O)NCCc1ccccc1O` [Example 48, 4-hydroxy-N-[2-(2-hydroxyphenyl)ethyl]-2,6-dimethyl-benzenesulfonamide], for which, at Nox1, the “IC50 Nox1” value is “—”. For the same compound, the IC50 on Nox2 is 870 nM. Besides, the “IC50 Nox5” value at Nox5 is recorded as “—”. In addition, the half-life at 1 μM in data set [1] was determined as 69 min.

For the compound `O=S(=O)(NCCc1ccccc1O)c1c(Cl)cc(Br)cc1Cl` [Example 38, 4-bromo-2,6-dichloro-N-[2-(2-hydroxyphenyl)ethyl]benzenesulfonamide], the “IC50 Nox1” value at Nox1 is “—”. On Nox2, this compound gave an IC50 of 1500 nM. In addition, the “IC50 Nox5” value on Nox5 is recorded as “—”. The half-life at 1 μM in data set [1] lay within 9 to 11 min.

Turning to `Cc1cc(C)c(S(=O)(=O)NCCc2ccccc2O)c(C)c1` [Example 37, N-[2-(2-hydroxyphenyl)ethyl]-2,4,6-trimethylbenzene-1-sulfonamide], the “IC50 Nox1” value on Nox1 is on record as “—”. This compound also came in with an IC50 on Nox2 of 900 nM. Moreover, the “IC50 Nox5” value at Nox5 is “—”. Besides, in data set [1], the half-life at 1 μM was in the range of 6 to 10 min.

Take `Cc1ccccc1CCNS(=O)(=O)c1c(Cl)cc(Br)cc1Cl` [Example 17, 4-bromo-2,6-dichloro-N-[2-(2-methylphenyl)ethyl]benzene-1-sulfonamide]: the “Activity on Nox1, Nox2, Nox3 and Nox5” value in data set [2] was “inactive”. For the same compound, the “IC50 Nox1” value on Nox1 is recorded as “—”. The “IC50 Nox2” value on Nox2 is on record as “—”. The “IC50 Nox3” value at Nox3 is on record as “—”. Also, the “IC50 Nox5” value at Nox5 is “—”. Moreover, the “IC50 GO” value on glucose oxidase was “—”. Further, the half-life at 1 μM in data set [1] is 3 to 4 min.

Regarding `Cc1cc(Cl)c(S(=O)(=O)NCCc2ccccc2O)c(C)c1O` [Example 44, 6-chloro-3-hydroxy-N-[2-(2-hydroxyphenyl)ethyl]-2,4-dimethyl-benzenesulfonamide], the “IC50 Nox1” value at Nox1 is given as “—”. The compound also yielded an IC50 against Nox2 of 900 nM. For the same compound, on Nox5, the “IC50 Nox5” value is “—”. For the same compound, in data set [1], the half-life at 1 μM worked out at 36 min.

`Cc1ccccc1CCNS(=O)(=O)c1c(C)cccc1Cl` [Example 11, 2-chloro-6-methyl-N-[2-(2-methylphenyl)ethyl]benzene-1-sulfonamide]: in data set [2], the “Activity on Nox1, Nox2, Nox3 and Nox5” value is “inactive”. For the same compound, the “IC50 Nox1” value at Nox1 is reported as “—”. Moreover, the “IC50 Nox2” value on Nox2 is given as “—”. Moreover, the “IC50 Nox3” value at Nox3 is recorded as “—”. Further, at Nox5, the “IC50 Nox5” value is recorded as “—”. The “IC50 GO” value at glucose oxidase is “—”.

`O=S(=O)(NCCc1ccccc1Cl)c1c(Cl)cc(C2CC2)cc1Cl` [Example 26, 2,6-dichloro-N-[2-(2-chlorophenyl)ethyl]-4-cyclopropylbenzene-1-sulfonamide]: in data set [2], the “Activity on Nox1, Nox2, Nox3 and Nox5” value is “inactive”. For the same compound, the “IC50 Nox1” value on Nox1 is listed as “—”. The “IC50 Nox2” value against Nox2 is on record as “—”. Also, on Nox3, the “IC50 Nox3” value is reported as “—”. Also, the “IC50 Nox5” value at Nox5 is “—”. Further, the “IC50 GO” value on glucose oxidase is recorded as “—”.

Regarding `Cc1ccccc1C(F)CNS(=O)(=O)c1c(Cl)cc(Br)cc1Cl` (racemic) [Example 35, 4-bromo-2,6-dichloro-N-[2-fluoro-2-(2-methylphenyl)ethyl]benzene-1-sulfonamide], the “IC50 Nox1” value on Nox1 is “—”. In addition, on Nox2, the “IC50 Nox2” value was “—”. Moreover, at Nox5, the “IC50 Nox5” value was “—”. Moreover, the half-life at 1 μM in data set [1] fell in the range of 11 to 13 min.

`COc1cc(C)c(S(=O)(=O)NCCc2ccccc2Cl)c(C)c1` [Example 46, N-[2-(2-chlorophenyl)ethyl]-4-methoxy-2,6-dimethyl-benzenesulfonamide]: the “IC50 Nox1” value on Nox1 is given as “—”. On Nox2, the “IC50 Nox2” value was “—”. Also, the “IC50 Nox5” value at Nox5 is reported as “—”. Moreover, the half-life at 1 μM in data set [1] was determined as 2 min.
